Laboratory results as given in patent publication US20260216355A1, “ANTIBODY-DRUG CONJUGATE FROM N-OXYCYCLOALKYL SUBSTITUTED CAMPTOTHECIN DERIVATIVE” (priority 2022, published 2026).

Experiments:
[1] = test system: breast cancer cells MDA-MB-231; experiment: In vitro inhibitory activity of ADC against tumor cell growth (CCK-8), MDA-MB-231; format: cell-based, Human; details: MDA-MB-231 cells, 6 days incubation
From the text: (§1) Method for in vitro inhibitory activity assay of ADC: Human esophageal cancer cells OE-33, lung cancer cells NCI-H1975, and breast cancer cells MDA-MB-231 used for activity assays were respectively cultured in RPMI1640 (Cellmax), RPMI1640 (Cellmax), and DMEM (Cellmax) media containing 10% fetal bovine serum (FBS, Cellmax) to the exponential growth phase. After trypsinization, the cells were centrifuged, and the supernatant was discarded. The cells were resuspended with media and diluted to 3×10^4 cells/mL, 0.5×10^4 cells/mL and 1.5×10^4 cells/mL respectively. Then, 100 μL of each cell suspension was added to a 96-well cell culture plate, and the plate was returned to an incubator at 37° C. with 5% CO2 for overnight culture. The next day, the ADC to be tested was diluted to 2000 nM, 400 nM, 80 nM, 16 nM, 3.2 nM, 0.64 nM, 0.128 nM, and 0.026 nM using culture medium. The diluted ADC was added to a 96-well cell culture plate at 100 μL per well, with 3 replicates set for each concentration. For the negative control without ADC and the blank control, 100 μL of culture medium was added to each well. After the sample addition was finished, the plate was returned to the incubator at 37° C. with 5% CO2 for further incubation for 6 days. Upon completion of incubation, the cell culture plate was removed, and the medium in the plate was aspirated using a pipette. 100 μL of medium containing 10% CCK-8 was added to each well, followed by incubation at 37° C. for 3 h. After incubation, the plate was removed, protected from light, placed in a microplate reader, and the absorbance was measured at a test wavelength of 450 nm with a reference wavelength of 630 nm. Based on the absorbance values, the IC50 (Table 1) was calculated using four-parameter regression in GraphPad. The corresponding ADC drug containing Dxd was used as a positive control drug, which has the following structure: […]

[2] = test system: Human esophageal cancer cells OE-33; experiment: In vitro inhibitory activity of ADC against tumor cell growth (CCK-8), OE-33; format: cell-based; details: OE-33 cells, 6 days incubation
From the text: as §1

[3] = test system: lung cancer cells NCI-H1975; experiment: In vitro inhibitory activity of ADC against tumor cell growth (CCK-8), NCI-H1975; format: cell-based, Human; details: 6 days incubation
From the text: as §1

Substance	IC50 [1]	IC50 [2]	IC50 [3]
7-(N-(HS627-Ac-PEG2-Gly-Lys-PABC), N-((R)-tetrahydrofuran-3-yl)amino)ethyl-10,11-methylenedioxycamptothecin [ADC 13]	50 to 500 nM	50 to 500 nM	50 to 500 nM
7-(N-(HS627-AcPEG2-Gly-Lys-PABC), N-(tetrahydropyran-4-yl)amino)ethyl-10,11-methylenedioxycamptothecin [ADC 5]	50 to 500 nM	> 250 nM	50 to 500 nM
7-(N-(HS627-AcPEG4-Gly-Lys-PABC), N-(tetrahydropyran-4-yl)amino)ethyl-10,11-methylenedioxycamptothecin [ADC 7]	50 to 500 nM	> 250 nM	50 to 500 nM
7-(N-(HS627-mPEG2-Gly-Lys-PABC), N-(tetrahydropyran-4-yl)amino)ethyl-10,11-methylenedioxycamptothecin [ADC 3]	5 to 50 nM	5 to 50 nM	5 to 50 nM
7-(N-(HS627-mc-Val-Cit-PABC), N-(tetrahydropyran-4-yl)amino)ethyl-10,11-methylenedioxycamptothecin [ADC 1]	50 to 500 nM	5 to 50 nM	5 to 50 nM
7-(N-(IP140B-Ac-PEG2-Gly-Lys-PABC), N-((R)-tetrahydrofuran-3-yl)amino)ethyl-10,11-methylenedioxycamptothecin [ADC 14]	5 to 50 nM	5 to 50 nM	5 to 50 nM
7-(N-(IP140B-Ac-PEG2-Gly-Lys-PABC), N-((S)-tetrahydrofuran-3-yl)amino)ethyl-10,11-methylenedioxycamptothecin [ADC 16]	50 to 500 nM	50 to 500 nM	50 to 500 nM
7-(N-(IP140B-AcPEG2-Gly-Lys-PABC), N-(tetrahydropyran-4-yl)amino)ethyl-10,11-methylenedioxycamptothecin [ADC 6]	50 to 500 nM	5 to 50 nM	5 to 50 nM
7-(N-(IP140B-AcPEG4-Gly-Lys-PABC), N-(tetrahydropyran-4-yl)amino)ethyl-10,11-methylenedioxycamptothecin [ADC 8]	50 to 500 nM	50 to 500 nM	50 to 500 nM
7-(N-(IP140B-Qx-PEG2-Gly-Lys-PABC), N-((R)-tetrahydrofuran-3-yl)amino)ethyl-10,11-methylenedioxycamptothecin [ADC 12]	5 to 50 nM	5 to 50 nM	< 5 nM
7-(N-(IP140B-Qx-PEG2-Gly-Lys-PABC), N-(tetrahydropyran-4-yl)amino)ethyl-10,11-methylenedioxycamptothecin [ADC 10]	< 5 nM	5 to 50 nM	< 5 nM
7-(N-(IP140B-mPEG2-Gly-Lys-PABC), N-(tetrahydropyran-4-yl)amino)ethyl-10,11-methylenedioxycamptothecin [ADC 4]	5 to 50 nM	5 to 50 nM	5 to 50 nM
7-(N-(IP140B-mc-Val-Cit-PABC), N-(tetrahydropyran-4-yl)amino)ethyl-10,11-methylenedioxycamptothecin [ADC 2]	5 to 50 nM	5 to 50 nM	< 5 nM
20-O-(IP140B-Ac-PEG4-daP-NHNHC)-7-(N-(tetrahydropyran-4-yl)amino)ethyl-10,11-methylenedioxycamptothecin [ADC 20]	< 5 nM	< 5 nM	< 5 nM
20-O-(IP140B-AcPEG2-Gly-Val-Ala-Gly-NHNHC)-7-(N-(tetrahydropyran-4-yl)amino)ethyl-10,11-methylenedioxycamptothecin [ADC 18]	< 5 nM	< 5 nM	< 5 nM
